# Data from patent US8647643B2, “Farnesoid-X-receptor antagonist as a vaccine adjuvant” (priority 2008, dated 2014).
# Experiments:
# rHBsAg antigen = experiment: Anti-HBsAg antibody titers after immunization of rats with rHBsAg plus BB adjuvant; assay type: in vivo; settings: Wistar rats, rHBsAg 10 μg intramuscular day 0, serum every 14 days; BB-50 uM, BB-5 uM
# [1] = tested on: rDNA coding Rabies antigen; set-up: species or system Swiss albino mice; settings: mouse, in vivo
# [2] = tested on: inactivated rabies virus (Rabipur); set-up: species or system mice; settings: mouse, in vivo
# [3] = tested on: Recombinant NE protein of hepatitis E virus; experiment: Sero-conversion after recombinant NE protein of hepatitis E virus mixed with BB; assay type: in vivo; settings: 1 μg NE protein with 5 μM of BB, intramuscularly
# [4] = tested on: cancer cells (Mia-paca 2); experiment: Interferon gamma ELISPOT on splenocytes after immunization with cancer cells with/without BB; assay type: in vivo, mice
# [5] = Water solubility (statement); assay type: physicochemical
compound,measurement,setting,value
"CC(=O)C1=CC[C@H]2[C@@H]3CC=C4C[C@@H](O)CC[C@]4(C)[C@H]3CC[C@]12C [BB, 3β-hydroxy-5,16-pregnadien-20-one]",ranking as adjuvant (anti-HBsAg antibodies),rHBsAg antigen,lead adjuvants
same,"day on which antibody titers are protective, after 1st dose of vaccine",[1],28 days
same,time the titers remained protective,[1],about 100 days
same,antibody response compared with rabies vaccine without adjuvant,[2],faster and stronger response
same,day on which titers were protective,[2],14 days
same,sero-conversion,[3]; after 2nd injection given 2 weeks later,100%
same,sero-conversion,[3]; day 14 after 1st injection,60%
same,effect of the generated immune response on tumor size,[4]; BB with cancer cells (Mia-paca 2),reduction of tumor size
same,IFN-g ELISPOT response relative to the mycobacterium adjuvanted group,"[4]; doses day 1 and day 21, splenocytes day 28",more then three times greater response
same,water solubility,[5],water insoluble
